Laboratory results from patent US20160082133A1, “CHEMICAL EXCHANGE SATURATION TRANSFER (CEST) BASED MRI USING REPORTER GENES AND SUBSTRATES AND METHODS THEREOF” (The Johns Hopkins University, priority 2013, published 2016).
Values joined by “and” are separate entries in the source; they are usually repeats but may differ in a detail not shown here. Identical values can stand only once.

Assays:
[1] = CEST MRI of CDase substrates and products at 9.4 T; format: physicochemical; conditions: pH 7.4, 37° C.
Excerpt: All MR images were acquired with a 9.4T Bruker Avance system equipped with a 15 mm sawtooth RF coil. A modified RARE sequence (TR=6.0 sec, effective TE=43.2 ms, RARE factor=16, slice thickness=0.7 mm, FOV=14×14 mm, matrix size=128×64, resolution=0.11×0.22 mm^2, and NA=2) including a magnetization transfer (MT) module (one CW pulse, B=[…] (150 Hz), 3 sec) was used to acquire CEST-weighted images from −6 ppm to 6 ppm (step=0.2 ppm) around the water resonance (0 ppm). The absolute water resonant frequency shift was measured using a Water Saturation Shift Reference (WASSR) (Kim, M. et al. Magnetic Resonance in Medicine 2009, 61, 1441) method modified (Liu, G. et al. Contrast Media Mol Imaging 2010, 5, 162) with Lorentzian analysis. […]
Data processing was performed using custom-written scripts in MATLAB (Mathworks, Waltham, Mass.). CEST spectra were calculated from the mean of an ROI placed over each sample after B0 correction of the contrast on a per voxel basis. The CEST signal was quantified using MTRasym at specific offsets of interest (i.e., &ω=+2 ppm for cytosine or +2.4 ppm for 5FC) using the definition: MTRasym=(S^−˜ω−S^+″ω)/S0, where and s[−˜ω, +Aω] is the water signal intensity in the presence of a saturation pulse at offsets ±Aω, and S0 is water signal intensity in the absence of a saturation pulse.

[2] = In vitro CEST-MRI of thymidine analogues at 11.7 T; format: physicochemical; conditions: pH 7.4, 37° C.; for MTRasym (8.5 Hz) / MTRasym (170 Hz) / MTRasym (213 Hz): at 5 ppm for 20 nM agent (so in the source); for MTRasym (128 Hz): at 5 ppm for 20 mM agent
Method: All compounds were dissolved at a concentration of 20 mM in phosphate-buffered saline (PBS) (pH=7.4) and placed in microcapillaries, as described previously.^17 CESTMRI experiments were performed on a vertical 11.7 T scanner (Bruker Avance system) at 37° C. A modified RARE sequence (TR/TE=10 000/9.4 ms; RARE factor=16; 1 mm slice thickness; FOV=11×11 mm^2; matrix size=64×32; resolution=0.17×0.34 mm^2; and NA=2) including a magnetization transfer (MT) module ([…]) was used to acquire CEST-weighted images from −8 to +8 ppm with increments of 0.2 ppm around the water resonance, which was assigned to be at 0 ppm. Pixel-based B0 correction was used as described before using the same parameters as above except for TR=1500 ms and B1/tsat=21 Hz/500 ms, with a sweep range from −2 to +2 ppm (0.1 ppm steps). Data processing was performed using custom-written scripts in MATLAB (Mathworks). Mean CEST spectra were plotted from an ROI for each sample, after B0 correction. MTRasym=100×(S^−Aω−S^AωA/^‘−’0)/3 was computed at different offsets Aω.

[3] = Quantification of exchange rates (QUESP, Bloch equation fitting); format: physicochemical; conditions: 11.7 T, pH 7.4, 37° C.; for kex, quantified exchange rates of imino and water protons: 5 ppm for 1-3, 6 ppm for dT
Method: Exchange rates were quantified with the saturation power dependent CEST approach (QUESP) and Bloch equation fitting (McMahon et al., Magn. Res. Med. 2006, 55, 836). For each sample, the MTRasym was measured at the imino resonance frequency for CEST saturation fields of 43, 85, 128, 170, 213, 255, 340, and 426 Hz while the saturation pulse duration was kept constant at 4000 ms. The Bloch equations were then fit numerically to these MTRasym values using MATLAB (Mathworks), and the exchange rates (kex, s^−1) were determined from the fits. Errors (95% confidence limits) were estimated using the F statistic.

[4] = system: 293^HSV1-tk cells; experiment: Cell viability assay (CellTiter-Blue); format: cell-based, human; conditions: 0.5 mg/ml
Method: Cell viability assay was performed using CellTiter-Blue® Cell Viability Assay (Promega), which provides a fluorometric method for estimating the number of viable cells present in 96 well plate. HEK293FT cells transduced with the HSV1-tk (293^HSV1-tk) were plated in 96 well-plate (10,000 cells/well). Cells were incubated for a periods of 4 hours and 24 hours in the presence of ganciclovir (GCV, 0.5 mg/ml in cell medium), compound 2 (0.5 mg/ml in cell medium) and medium (as control). CellTiter-Blue® Reagent was added (20 μl/well) and plate was incubated for 3 hours at 37° C. Finally, fluorescence 560/590 nm was recorded and values obtained from probe containing wells (GCV or 2, N=4) were normalized to values of non-treated cells (control wells) to determine the % of viable cells after the incubation period.

[5] = biological target: T1, PKA (Mus musculus, UniProt P05132); experiment: Phosphorylation assay with recombinant PKA read out by CEST MRI; format: biochemical; conditions: 1 mM peptide
T1 construct: purchased New England Biolabs
Method: (§1) CEST MRI experiments were performed on a vertical 11.7T Bruker Avance system. Approximately […] of each sample was loaded into a capillary tube and up to 20 samples were scanned at each session to minimize variability as described before (Liu G et al., High-throughput screening of chemical exchange saturation transfer MR contrast agents. Contrast Media Mol Imaging 2010; 5:162-17). […] To account for inhomogeneity of the B0 field, the absolute water resonant frequency shift was measured using a modified water saturation shift reference method (Kim M et al., Water saturation shift referencing (WASSR) for chemical exchange saturation transfer (CEST) experiments. Magn Reson Med 2009; 61:1441-1450), using the same parameters as in CEST imaging except pulse repetition time 1/4 1.5 s, saturation pulse 1/4 500 ms, B1 1/4 […], and a sweep range from −2 to +2 ppm (step 1/4 0.1 ppm). […] After B0 correction for each voxel using the water saturation shift reference data, mean CEST-spectra were calculated from a region of interest (ROI) for each sample. The MTR asymmetry was quantified as MTRasym 1/4 (S^−Δω−S^+Δω)/S^0 (S^−Δω and S^+Δω are the water peak differentials due to saturation at the target frequency +ω and its negative −ω, respectively. S^0 is the unsaturated signal). […]

[6] = CEST-MRI of LRRASLG and LRRApSLG peptides in PBS; format: physicochemical; conditions: 1 mM, PBS pH 7.4, 11.7T
Method: Peptides were synthesized by NeoBioSci (Cambridge, Mass.) and provided as lyophilized powder. All compounds were dissolved in 10 mM PBS (pH 1/4 7.4) at the indicated concentration.
as §1, with “sample.” for “sample. The MTR asymmetry was quantified as MTRasym 1/4 (S^−Δω−S^+Δω)/S^0 (S^−Δω and S^+Δω are the water peak differentials due to saturation at the target frequency +ω and its negative −ω, respectively. S^0 is the unsaturated signal).”

[7] = system: HEK293; experiment: CEST MRI of HEK293 cells expressing hPRM1 (lysate and encapsulated live cells); format: cell-based, Human
Method: CEST experiments were performed on an 11.7T Bruker Avance system, as previously described. A modified RARE (TR/TE=6000/9.4 ms), including a magnetization transfer module (B1=4.7 μT/4000 ms), was used to acquire CEST-weighted images. The absolute water resonant frequency shift was measured using a modified WASSR method, with the same parameters as in CEST imaging, except for TR=1.5 sec and a saturation pulse of B1=0.5 μT/250 ms, which was used for B0 correction for each voxel using MatLab. MTR asymmetry (MTRasym)=100×(S−Δω−S+Δω)/S0 was computed at different offsets, Δω. Human Embryonic Kidney cells (HEK293), were engineered to express the gene encoding to hPRM1 (NM_002761; 293^hPRM1). Non-expressing wild type cells (293^wt) were used as controls. The cells were lysed or encapsulated in alginate-based microcapsules using Ba^2+ ions as the gelating cation (Barnett, B. P., et al. Nat Protoc 6, 1142-1151 (2011)).

Molecule: O=c1[nH]cc(F)c(=O)[nH]1 [5FU, 5-fluorouracil]
- MTRasym (CEST contrast) [1]: only limited and non-frequency-specific MTRasym

Molecule: CC1(O)C(=O)NC(=O)N([C@H]2C[C@H](O)[C@@H](CO)O2)C1O (stereo partly shown) [Compound 3, thymidine glycol]
- MTRasym (8.5 Hz) [2]: 3%
- MTRasym (170 Hz) [2]: 11%
- MTRasym (213 Hz) [2]: 16%
- MTRasym (128 Hz) [2]: 7%
- kex of the imino proton [3]: 3.7±0.2×10^3 s^−1 and 5.1±0.7×10^3 s^−1
- kex, quantified exchange rates of imino and water protons [3]: 3.8 ± 0.2 ×10^3 s^−1

Molecule: O=c1[nH]c(=O)n([C@H]2C[C@H](O)[C@@H](CO)O2)cc1Cl [Compound 4, 5-chloro-2′-deoxyuridine]
- CEST contrast from the imino proton [2]: No CEST contrast was observed

Molecule: Nc1nc(O)c2ncn(COC(CO)CO)c2n1 [GCV, ganciclovir, reference compound]
- toxic effect on 293^HSV1-tk cells ([4]; 4 and 24 hours): cytotoxic effect
- cells killed ([4]; 24 hour, 293^HSV1-tk): about 50%

Molecule: Cc1cn([C@H]2C[C@H](O)[C@@H](CO)O2)c(=O)[nH]c1=O [dT, Thymidine, reference compound]
- MTRasym (8.5 Hz) [2]: 2%
- MTRasym (170 Hz) [2]: 10%
- MTRasym (213 Hz) [2]: 15%
- MTRasym (128 Hz) [2]: 5%
- kex of the imino proton [3]: 3.7±0.2×10^3 s^−1
- kex, quantified exchange rates of imino and water protons [3]: 5.1 ± 0.7 ×10^3 s^−1

Molecule: O=c1cc[nH]c(=O)[nH]1 [uracil]
- MTRasym (CEST contrast) [1]: only limited and non-frequency-specific MTRasym

Molecule: LRRASLG
- decrease in CEST contrast on incubation with recombinant PKA ([5]; 4 mM ATP, 30° C.): > 50%
- time in which the majority of the signal difference is generated ([5]; recombinant PKA): ≤ 15 min
- CEST contrast of unphosphorylated versus phosphorylated peptide [6]: significantly higher contrast

Molecule: hPRM1: arginine-rich protein human protamine-1 (NM_002761) expressed as CEST reporter (ARYRCCRSQSRSRYYRQRQRSRRRRRRSCQTRRRAMRCCRPRYRPRCRRH; UniProt P04553 2-51, looked up)
- CEST contrast of encapsulated live cells compared to non-expressing wild type cells ([7]; alginate microcapsules, 1.3 ppm and 3.6 ppm offsets): higher
- CEST contrast of 293^hPRM1 lysate compared to wild type lysate ([7]; cell lysate): significantly higher CEST contrast
